# “And” between values parts separate entries of the source, which are not always exact repeats. Identical values can stand only once.
# What was measured:
# EV71 [1] = experiment: Inhibition of EV71 in RD cells (viral RNA, qRT-PCR); type: cell-based, enterovirus 71 (EV71); details: anti-EV71 in RD cells
# Description: (§1) (1) Different cells were plated in a 24-well plate.
# (§2) (2) When the cells grew to a confluence of 70%-80%, the DMEM medium containing 10% serum was replaced with a DMEM medium containing 2% serum (the DMEM medium containing 2% serum was added in each well at an amount of 0.5 mL), and 5 μL of EV71 virus of 1×10^6 PFU/mL was added to each well.
# (§3) (3) After 1 h, different polypeptides (RQ or control TAT) with final concentrations of 0.3125 μM, 0.625 μM, 1.25 μM, 2.5 μM, and 5 μM were added respectively. The group without polypeptide added was used as a control.
# (§4) (4) The samples were collected 24 h after the infection of EV71 virus, and RNA was extracted with the total RNA extraction kit.
# (§5) (5) The supernatant was discarded, then 350 μL of TRK lysate was added to each well, and the plate was put on a shaker for 5 min.
# (§6) (6) 350 μL of 70% ethanol (DEPC) was added to each well, and then the plate was put on a shaker for 5 min.
# (§7) (7) The solution in each well was transferred to a RNA extraction column for 1 min of centrifugation at 12000 g.
# (§8) (8) The solution obtained in the recovery tube was reloaded on the column again for 1 min of centrifugation at 12000 g.
# (9) RNA washing buffer 1 was added in the column for 30 s of centrifugation at 12000 g.
# (10) RNA washing buffer 2 was added in the column for 1 min of centrifugation at 12000 g.
# (11) Step (10) was repeated.
# (12) The column alone was centrifuged at 12000 g for 2 min to completely remove the residual RNA washing buffer.
# (13) 50 μL of DEPC water was added to the column for 2 min of centrifugation at 12000 g.
# (§9) (14) 2 μL of RNA sample was subjected to a fluorescence quantitative experiment using the one step qRT-PCR kit.
# (3) After 1 h, different polypeptides (RQ or control TAT) with final concentrations of 0.3125 μM, 0.625 μM, 1.25 μM, 2.5 μM and 5 μM were added respectively. The group without polypeptide added was used as a control.
# EV71 [2] = experiment: Inhibition of EV71 in huh7 cells (viral RNA, qRT-PCR); type: cell-based, enterovirus 71 (EV71); details: anti-EV71 in huh7 cells
# Description: as §1, §2, §3, §4, §5, §6, §7, §8
# (§10) (9) RNA washing buffer 1 was added in the column for 30 s of centrifugation at 12000 g. […]
# as §9
# EV71 [3] = experiment: Inhibition of EV71 in 293T cells (viral RNA, qRT-PCR); type: cell-based, enterovirus 71 (EV71); details: anti-EV71 in 293T cells
# Description: as §1, §2, §3, §4, §5, §6, §7, §8, §10, §9
# [4] = Toxicity assay in RD cells (CCK-8); type: cell-based; details: human, RD cells, 24 h
# Description: (§11) (1) Different cells were plated in a 96-well plate at 100 μL per well.
# (§12) (2) When the cells grew to a confluence of 70%-80%, the DMEM medium containing 10% serum was replaced with a DMEM medium containing 2% serum, and a certain concentration gradient of polypeptide RQ was added, so that the final concentrations of the polypeptide in the wells were 0.073242 μM, 0.146484 μM, 0.292969 μM, 0.585938 μM, 1.171875 μM, 2.34375 μM, 4.6875 μM, 9.375 μM, 18.75 μM, 37.5 μM, 75 μM, 150 μM, and 300 μM, respectively.
# (§13) (3) The samples were collected 24 h after the addition of the polypeptide, and then 10 μL of live cell detection reagent CCK-8 was added to each well and mixed well.
# (§14) (4) The plate was placed at 37° C. for 2 h.
# (§15) (5) The absorbance value at OD450 was detected by a microplate reader.
# (§16) (1) RD cells were plated in a 96-well plate at 100 μL per well.
# (§17) (2) When the cells grew to a confluence of 70%-80%, the DMEM medium containing 10% serum was replaced with a DMEM medium containing 2% serum, and B-RQ was added so that the final concentrations in the wells were 0.46 μM, 2.34 μM, 4.68 μM, 9.37 μM, 18.75 μM, 37.5 μM, 75 μM, and 150 μM.
# RD cells = experiment: Toxicity assay in RD cells (CCK-8); type: cell-based; details: 24 h
# Description: as §11, §12, §13, §14, §15, §16, §17
# [5] = Toxicity assay in Huh7 cells (CCK-8); type: cell-based; details: human, Huh7 cells
# Description: as §11, §12, §13, §14, §15
# Huh7 cells = experiment: Toxicity assay in Huh7 cells (CCK-8); type: cell-based; details: Table 14, 24 h
# Description: as §11, §12, §13, §14, §15
smiles,measurement,setting,value
CC[C@H](C)[C@H](NC(=O)[C@H](C)NC(=O)[C@H](CO)NC(=O)[C@H](CCCNC(=N)N)NC(=O)[C@H](CC(N)=O)NC(=O)[C@H](CC(N)=O)NC(=O)[C@H](Cc1ccc(O)cc1)NC(=O)[C@H](CCC(=O)O)NC(=O)[C@H](CCCNC(=N)N)NC(=O)CNC(=O)[C@H](CO)NC(=O)CNC(=O)[C@H](CCCNC(=N)N)NC(=O)[C@H](CCCNC(=N)N)NC(=O)[C@H](CCCNC(=N)N)NC(=O)[C@H](CCC(N)=O)NC(=O)[C@H](CCCNC(=N)N)NC(=O)[C@H](CCCNC(=N)N)NC(=O)[C@H](CCCCN)NC(=O)[C@H](CCCCN)NC(=O)[C@H](CCCNC(=N)N)NC(=O)CNC(=O)[C@@H](N)Cc1ccc(O)cc1)C(=O)NCC(=O)N[C@@H](CC(N)=O)C(=O)N[C@H](C(=O)N[C@H](C(=O)N[C@@H](CCC(=O)O)C(=O)N[C@@H](C)C(=O)N[C@@H](CC(C)C)C(=O)N[C@@H](Cc1ccccc1)C(=O)N[C@@H](CCC(N)=O)C(=O)O)[C@@H](C)CC)[C@@H](C)O [RQ],IC50,EV71 [1],1.35 µM
same,IC50,EV71 [2],0.41 µM
same,IC50,EV71 [3],3 µM
same,"viability at 24 h, 0.073242 µM","[4]; RQ 0.073242 μM, read-out: Viability of RD cell (%)",99.8%
same,"viability at 24 h, 0.146484 µM","[4]; RQ 0.146484 μM, read-out: Viability of RD cell (%)",99.2%
same,"viability at 24 h, 0.292969 µM","[4]; RQ 0.292969 μM, read-out: Viability of RD cell (%)",101%
same,"viability at 24 h, 0.585938 µM","[4]; RQ 0.585938 μM, read-out: Viability of RD cell (%)",98.9%
same,"viability at 24 h, 1.17188 µM","[4]; RQ 1.171875 μM, read-out: Viability of RD cell (%)",99.6%
same,"viability at 24 h, 2.34375 µM","[4]; RQ 2.34375 μM, read-out: Viability of RD cell (%)",98.8%
same,"viability at 24 h, 4.6875 µM","[4]; RQ 4.6875 μM, read-out: Viability of RD cell (%)",98.3%
same,"viability at 24 h, 9.375 µM","[4]; RQ 9.375 μM, read-out: Viability of RD cell (%)",98.4%
same,"viability at 24 h, 18.75 µM","[4]; RQ 18.75 μM, read-out: Viability of RD cell (%)",101%
same,"viability at 24 h, 37.5 µM","[4]; RQ 37.5 μM, read-out: Viability of RD cell (%)",101%
same,"viability at 24 h, 75 µM","[4]; RQ 75 μM, read-out: Viability of RD cell (%)",102%
same,"viability at 24 h, 150 µM","[4]; RQ 150 μM, read-out: Viability of RD cell (%)",8.73%
same,CC50 at 24 h,[4]; CCK-8,> 150 µM
same,Viability of RD cell (%),RD cells; RQ 0.073242 μM,100.3321% and 99.8893%
same,Viability of RD cell (%),RD cells; RQ 0.146484 μM,102.3247% and 99.94%
same,Viability of RD cell (%),RD cells; RQ 0.292969 μM,100.2214% and 99.17%
same,Viability of RD cell (%),RD cells; RQ 0.585938 μM,103.5978% and 102.7122%
same,Viability of RD cell (%),RD cells; RQ 1.171875 μM,99% and 99.23%
same,Viability of RD cell (%),RD cells; RQ 2.34375 μM,98.51%
same,Viability of RD cell (%),RD cells; RQ 4.6875 μM,99.45% and 100.8856%
same,Viability of RD cell (%),RD cells; RQ 9.375 μM,100.7196% and 102.6568%
same,Viability of RD cell (%),RD cells; RQ 18.75 μM,103.4317% and 102.4354%
same,Viability of RD cell (%),RD cells; RQ 37.5 μM,103.9852% and 103.5424%
same,Viability of RD cell (%),RD cells; RQ 75 μM,103.5978% and 102.9889%
same,Viability of RD cell (%),RD cells; RQ 150 μM,8.782% and 8.007%
same,"viability at 24 h, 0.073242 µM","[5]; Table 14, RQ 0.073242 μM, 24 h, read-out: Viability of Huh7 cell (%)",113%
same,"viability at 24 h, 0.146484 µM","[5]; Table 14, RQ 0.146484 μM, 24 h, read-out: Viability of Huh7 cell (%)",111%
same,"viability at 24 h, 0.292969 µM","[5]; Table 14, RQ 0.292969 μM, 24 h, read-out: Viability of Huh7 cell (%)",111%
same,"viability at 24 h, 0.585938 µM","[5]; Table 14, RQ 0.585938 μM, 24 h, read-out: Viability of Huh7 cell (%)",101%
same,"viability at 24 h, 1.17188 µM","[5]; Table 14, RQ 1.171875 μM, 24 h, read-out: Viability of Huh7 cell (%)",104%
same,"viability at 24 h, 2.34375 µM","[5]; Table 14, RQ 2.34375 μM, 24 h, read-out: Viability of Huh7 cell (%)",98.7%
same,"viability at 24 h, 4.6875 µM","[5]; Table 14, RQ 4.6875 μM, 24 h, read-out: Viability of Huh7 cell (%)",98%
same,"viability at 24 h, 9.375 µM","[5]; Table 14, RQ 9.375 μM, 24 h, read-out: Viability of Huh7 cell (%)",103%
same,"viability at 24 h, 18.75 µM","[5]; Table 14, RQ 18.75 μM, 24 h, read-out: Viability of Huh7 cell (%)",101%
same,"viability at 24 h, 37.5 µM","[5]; Table 14, RQ 37.5 μM, 24 h, read-out: Viability of Huh7 cell (%)",95%
same,"viability at 24 h, 75 µM","[5]; Table 14, RQ 75 μM, 24 h, read-out: Viability of Huh7 cell (%)",90.9%
same,"viability at 24 h, 150 µM","[5]; Table 14, RQ 150 μM, 24 h, read-out: Viability of Huh7 cell (%)",65.8%
same,CC50 at 24 h,[5]; Table 1 (Huh and 293T cells),> 300 µM
same,Viability of Huh7 cell (%),Huh7 cells; RQ 0.073242 μM,113.9801% and 116.7518%
same,Viability of Huh7 cell (%),Huh7 cells; RQ 0.146484 μM,106.6132% and 101.8721%
same,Viability of Huh7 cell (%),Huh7 cells; RQ 0.292969 μM,104.4979% and 102.018%
same,Viability of Huh7 cell (%),Huh7 cells; RQ 0.585938 μM,100.7051% and 101.5074%
same,Viability of Huh7 cell (%),Huh7 cells; RQ 1.171875 μM,97.2% and 99.03%
same,Viability of Huh7 cell (%),Huh7 cells; RQ 2.34375 μM,100.1945% and 96.04%
same,Viability of Huh7 cell (%),Huh7 cells; RQ 4.6875 μM,103.5497% and 101.2886%
same,Viability of Huh7 cell (%),Huh7 cells; RQ 9.375 μM,101.4345% and 97.71%
same,Viability of Huh7 cell (%),Huh7 cells; RQ 18.75 μM,93.41% and 94.29%
same,Viability of Huh7 cell (%),Huh7 cells; RQ 37.5 μM,97.06% and 92.03%
same,Viability of Huh7 cell (%),Huh7 cells; RQ 75 μM,93.27% and 88.09%
same,Viability of Huh7 cell (%),Huh7 cells; RQ 150 μM,67.74% and 51.47%
